Values quoted from earlier work, collected in patent EP0073093A1, “4' Halo-substituted sucrose derivatives” (TATE & LYLE PUBLIC LIMITED COMPANY, priority 1981, dated 1983).

Tests used:
[1] = qualitative

## 2,1'-dichloro-2,1'- dideoxy derivative
qualitative, prior-art sucrose derivatives
  sweetness: not sweet at all

## 2,6,1',6'-tetrachloro-2,6,1', 6'-tetradeoxy derivative
[1]; comparable with that of quinine
  bittering power: potent bittering agent

## O=C1NS(=O)(=O)c2ccccc21 [saccharin]
Relative to sucrose
  times the sweetening power of sucrose: about 200 times
[1]
  after-taste: unpleasantly bitter after-taste
